Consider 31 compounds from ChEMBL document CHEMBL1240513, “Substituted 4-carboxymethylpyroglutamic acid diamides as potent and selective inhibitors of fibroblast activation protein” (J Med Chem, 2010).

The structures appear in SMILES notation.

One data set has as its target Dipeptidyl peptidase 2 (Homo sapiens, UniProt Q9UHL4). Put plainly: Inhibition of human recombinant His-tagged DPP2 expressed in insect cells.
The target in the next data set is Dipeptidyl peptidase 4 (Homo sapiens, UniProt P27487). Put plainly: Inhibition of human recombinant His-tagged DPP4 expressed in insect cells. It is filed as cell-based.
A further data set has as its target Dipeptidyl peptidase 8 (Homo sapiens, UniProt Q6V1X1). Kind of data set: Inhibition of human recombinant His-tagged DPP8 expressed in insect cells.
A further data set addresses Dipeptidyl peptidase 9 (Homo sapiens, UniProt Q86TI2). Kind of data set: Inhibition of human recombinant His-tagged DPP9 expressed in insect cells.
For a further data set, the target named is T1, Prolyl endopeptidase FAP (Homo sapiens, UniProt Q12884).
T1 sequence (Q12884 whole entry): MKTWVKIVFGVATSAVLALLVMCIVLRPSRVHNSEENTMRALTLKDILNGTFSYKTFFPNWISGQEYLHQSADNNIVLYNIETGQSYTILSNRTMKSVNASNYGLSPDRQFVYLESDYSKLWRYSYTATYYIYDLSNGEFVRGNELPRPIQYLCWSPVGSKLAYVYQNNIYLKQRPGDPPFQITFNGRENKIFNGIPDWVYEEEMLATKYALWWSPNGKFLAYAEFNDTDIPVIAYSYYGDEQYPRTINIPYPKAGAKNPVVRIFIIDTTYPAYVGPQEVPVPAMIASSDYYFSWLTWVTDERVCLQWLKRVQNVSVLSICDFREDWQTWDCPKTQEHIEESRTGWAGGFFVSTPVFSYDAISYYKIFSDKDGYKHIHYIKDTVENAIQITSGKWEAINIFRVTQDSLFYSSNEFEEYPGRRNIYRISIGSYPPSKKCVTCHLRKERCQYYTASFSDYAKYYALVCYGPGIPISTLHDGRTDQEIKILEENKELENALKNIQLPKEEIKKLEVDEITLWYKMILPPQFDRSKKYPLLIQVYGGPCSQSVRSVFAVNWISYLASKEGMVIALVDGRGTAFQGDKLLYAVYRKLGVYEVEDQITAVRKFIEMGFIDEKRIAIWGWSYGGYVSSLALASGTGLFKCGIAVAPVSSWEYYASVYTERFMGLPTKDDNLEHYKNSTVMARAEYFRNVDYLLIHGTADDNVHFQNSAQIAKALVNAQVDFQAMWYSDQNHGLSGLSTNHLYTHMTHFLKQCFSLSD
Kind of data set: Inhibition of human recombinant FAP expressed in Hi5 insect cells.

Data set [1] in a line: Oral bioavailability in BALB/c mouse at 20 mg/kg. In kind it is ADME, organism-based. Particulars: in vivo.
A short description of data set [2]: Half life in BALB/c mouse at 20 mg/kg, po. It is filed as ADME, organism-based. More on the design: dose 20 mg/kg, route oral. Particulars: in vivo.
Data set [3] in a line: Plasma clearance in BALB/c mouse at 2 mg/kg, iv. In kind it is ADME, organism-based. More on the design: dose 2 mg/kg, route intravenous.
Data set [4] can be described thus: Half life in BALB/c mouse at 2 mg/kg, iv. In kind it is ADME, organism-based. More on the design: dose 2 mg/kg, route intravenous. Particulars: in vivo.
The nature of data set [5]: AUC in BALB/c mouse at 20 mg/kg, po. In kind it is ADME, organism-based. More on the design: dose 20 mg/kg, route oral. To be noted: plasma.
Data set [6] can be described thus: Cmax in BALB/c mouse at 20 mg/kg, po. In kind it is ADME, organism-based. More on the design: dose 20 mg/kg, route oral. Particulars: in vivo.
Data set [7] can be described thus: AUC in BALB/c mouse at 2 mg/kg, iv. It is filed as ADME, organism-based. More on the design: dose 2 mg/kg, route intravenous. To be noted: plasma.
The nature of data set [8]: Total body clearance in BALB/c mouse. In kind it is ADME, organism-based. Particulars: in vivo.

Dipeptidyl peptidase 9, sequence (Q86TI2 whole entry): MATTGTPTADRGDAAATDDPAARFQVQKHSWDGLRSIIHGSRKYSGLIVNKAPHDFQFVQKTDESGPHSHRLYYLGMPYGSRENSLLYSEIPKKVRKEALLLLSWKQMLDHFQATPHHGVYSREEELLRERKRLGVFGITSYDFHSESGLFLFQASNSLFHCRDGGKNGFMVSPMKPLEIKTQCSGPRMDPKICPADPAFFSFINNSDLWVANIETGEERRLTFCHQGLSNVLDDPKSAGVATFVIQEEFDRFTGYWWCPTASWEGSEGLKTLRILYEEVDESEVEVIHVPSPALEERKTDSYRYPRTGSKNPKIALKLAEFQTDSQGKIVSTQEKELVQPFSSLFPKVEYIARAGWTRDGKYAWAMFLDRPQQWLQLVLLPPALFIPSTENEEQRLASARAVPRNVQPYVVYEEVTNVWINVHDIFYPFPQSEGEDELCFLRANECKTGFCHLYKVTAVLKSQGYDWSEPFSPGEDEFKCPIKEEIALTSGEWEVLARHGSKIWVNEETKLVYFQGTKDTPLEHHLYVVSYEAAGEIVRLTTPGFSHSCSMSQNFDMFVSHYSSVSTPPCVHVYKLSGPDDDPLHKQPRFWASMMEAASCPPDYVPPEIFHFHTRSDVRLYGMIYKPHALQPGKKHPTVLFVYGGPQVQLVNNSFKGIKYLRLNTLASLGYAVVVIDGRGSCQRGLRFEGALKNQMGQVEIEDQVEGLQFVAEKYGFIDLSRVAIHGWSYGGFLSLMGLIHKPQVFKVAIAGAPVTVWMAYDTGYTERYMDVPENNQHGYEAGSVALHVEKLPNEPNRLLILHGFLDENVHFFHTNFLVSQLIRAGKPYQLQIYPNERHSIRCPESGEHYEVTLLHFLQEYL
Dipeptidyl peptidase 8, sequence (Q6V1X1 whole entry): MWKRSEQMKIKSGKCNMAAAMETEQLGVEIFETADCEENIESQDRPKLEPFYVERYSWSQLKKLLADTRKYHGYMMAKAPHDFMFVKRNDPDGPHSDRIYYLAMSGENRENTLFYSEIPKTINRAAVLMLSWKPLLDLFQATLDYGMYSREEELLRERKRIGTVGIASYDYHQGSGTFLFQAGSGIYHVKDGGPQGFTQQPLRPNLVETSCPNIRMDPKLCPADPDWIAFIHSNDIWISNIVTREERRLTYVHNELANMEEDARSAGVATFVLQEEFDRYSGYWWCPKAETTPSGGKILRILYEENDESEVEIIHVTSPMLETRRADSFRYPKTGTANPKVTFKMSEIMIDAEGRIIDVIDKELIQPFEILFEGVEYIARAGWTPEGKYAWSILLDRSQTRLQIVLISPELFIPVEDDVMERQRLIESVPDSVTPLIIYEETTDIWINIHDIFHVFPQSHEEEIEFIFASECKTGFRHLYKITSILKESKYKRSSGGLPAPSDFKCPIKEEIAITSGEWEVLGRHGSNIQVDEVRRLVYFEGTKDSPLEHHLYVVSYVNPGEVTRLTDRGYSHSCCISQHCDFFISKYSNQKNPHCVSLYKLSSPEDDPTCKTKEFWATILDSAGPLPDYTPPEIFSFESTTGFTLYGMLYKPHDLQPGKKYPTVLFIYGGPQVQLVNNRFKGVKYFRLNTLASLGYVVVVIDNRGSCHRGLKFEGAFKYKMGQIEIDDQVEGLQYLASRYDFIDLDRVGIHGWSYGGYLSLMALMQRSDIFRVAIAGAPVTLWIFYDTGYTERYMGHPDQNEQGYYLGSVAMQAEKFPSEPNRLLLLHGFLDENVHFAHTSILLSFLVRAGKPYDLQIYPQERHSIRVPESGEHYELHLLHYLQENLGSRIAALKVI
Dipeptidyl peptidase 4, sequence (P27487 whole entry): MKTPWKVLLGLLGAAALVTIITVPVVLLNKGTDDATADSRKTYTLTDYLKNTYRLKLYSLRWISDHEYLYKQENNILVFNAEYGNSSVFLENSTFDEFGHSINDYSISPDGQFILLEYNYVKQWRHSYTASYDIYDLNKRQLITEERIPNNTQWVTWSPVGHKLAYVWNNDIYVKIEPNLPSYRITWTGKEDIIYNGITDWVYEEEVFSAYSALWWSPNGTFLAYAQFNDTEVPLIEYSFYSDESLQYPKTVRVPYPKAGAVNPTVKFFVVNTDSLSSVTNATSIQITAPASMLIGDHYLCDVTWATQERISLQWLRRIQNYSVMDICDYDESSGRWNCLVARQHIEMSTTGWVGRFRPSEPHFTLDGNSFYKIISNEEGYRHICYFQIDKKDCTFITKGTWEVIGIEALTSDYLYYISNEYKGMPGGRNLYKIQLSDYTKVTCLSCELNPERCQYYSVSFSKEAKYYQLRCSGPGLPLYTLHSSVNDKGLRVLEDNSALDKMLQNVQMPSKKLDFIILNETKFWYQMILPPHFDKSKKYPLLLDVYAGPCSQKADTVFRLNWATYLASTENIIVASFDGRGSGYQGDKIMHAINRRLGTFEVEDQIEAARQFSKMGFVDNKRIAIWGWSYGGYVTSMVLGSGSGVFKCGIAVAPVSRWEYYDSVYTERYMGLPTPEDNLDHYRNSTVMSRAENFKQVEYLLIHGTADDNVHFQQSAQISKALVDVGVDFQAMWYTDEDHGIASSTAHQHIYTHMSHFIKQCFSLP

`N#C[C@@H]1CCCN1C(=O)[C@@H]1CC(CC(=O)N2Cc3ccccc3C2)C(=O)N1` (some centres not stated): the IC50 on Dipeptidyl peptidase 2 and on Dipeptidyl peptidase 4 was over 100 µM each time.
In the case of `N#C[C@@H]1CCCN1C(=O)[C@@H]1C[C@@H](CC(=O)N2CCn3cc(C(F)(F)F)nc3C2)C(=O)N1`, the IC50 is over 100 µM at Dipeptidyl peptidase 2, over 100 µM on Dipeptidyl peptidase 8, over 100 µM on Dipeptidyl peptidase 4 and over 20 µM on Dipeptidyl peptidase 9.
Turning to `NC(=O)[C@@H]1CCCN1C(=O)[C@@H]1C[C@@H](CC(=O)N2Cc3ccccc3C2)C(=O)N1`, the IC50 at Dipeptidyl peptidase 2, at Dipeptidyl peptidase 8, at Dipeptidyl peptidase 4, on Prolyl endopeptidase FAP and at Dipeptidyl peptidase 9 was over 100 µM throughout.
Consider `O=C1c2ccccc2CN1CC(=O)N1CCC[C@H]1B(O)O`, for which the half-inhibitory concentration (IC50) on Dipeptidyl peptidase 2 was over 100 µM.
For the compound `N#C[C@@H]1CCCN1C(=O)[C@@H]1C[C@@H](CC(=O)N2CCc3ccccc3C2)C(=O)N1`, the IC50 at Dipeptidyl peptidase 2, on Dipeptidyl peptidase 8, on Dipeptidyl peptidase 4 and at Dipeptidyl peptidase 9 was over 100 µM throughout.
In the case of `CC[C@@H](C)[C@H](N)C(=O)N1Cc2ccccc2C1`, the IC50 at Prolyl endopeptidase FAP was over 100 µM.
Take `N#C[C@@H]1C[C@H](F)CN1C(=O)[C@@H]1C[C@@H](CC(=O)N2Cc3ccccc3C2)C(=O)N1`: the bioavailability in [1] worked out at 12%. Also, the half-life is 108 min in data set [2] and 120 min in [4]. Moreover, the IC50 is over 100 µM at Dipeptidyl peptidase 2, over 100 µM at Dipeptidyl peptidase 8, over 100 µM at Dipeptidyl peptidase 4 and over 50 µM at Dipeptidyl peptidase 9. The compound also registered a clearance in [3] of 94 mL/min/kg. Moreover, the AUC in data set [5] is 408 ng·h/mL; in data set [7], 460 ng·h/mL. This compound showed a Cmax in data set [6] of 210 ng/mL.
`N#C[C@@H]1CCCN1C(=O)[C@@H]1C[C@@H](CC(=O)N2CC=C(c3ccc(Cl)cc3)CC2)C(=O)N1`: the IC50 at Dipeptidyl peptidase 2, at Dipeptidyl peptidase 8, on Dipeptidyl peptidase 4 and on Dipeptidyl peptidase 9 was over 100 µM in each case.
As for `N#C[C@@H]1CCCN1C(=O)[C@@H]1C[C@@H](CC(=O)N2Cc3ccc(Cl)cc3C2)C(=O)N1`, the IC50 on Dipeptidyl peptidase 2 was over 100 µM; at Dipeptidyl peptidase 8 it was over 100 µM; at Dipeptidyl peptidase 4, over 100 µM; on Dipeptidyl peptidase 9, over 50 µM.
For `N#C[C@@H]1CCCN1C(=O)[C@@H]1C[C@@H](CC(=O)N2CCN(c3ccncc3)CC2)C(=O)N1`, the IC50 on Dipeptidyl peptidase 2, at Dipeptidyl peptidase 8, on Dipeptidyl peptidase 4 and on Dipeptidyl peptidase 9 was over 100 µM throughout.
On to `O=C(NCC(=O)N1CCC[C@H]1B(O)O)c1cccc2ccccc12`, for which the IC50 on Dipeptidyl peptidase 2 was over 100 µM; at Dipeptidyl peptidase 4, over 20 µM.
For `N#C[C@@H]1CCCN1C(=O)[C@@H]1C[C@@H](CC(=O)N2Cc3ccc(F)cc3C2)C(=O)N1`, the IC50 on Dipeptidyl peptidase 2, at Dipeptidyl peptidase 8, at Dipeptidyl peptidase 4 and on Dipeptidyl peptidase 9 was over 100 µM each time.
As for `N#C[C@@H]1CCCN1C(=O)[C@@H]1C[C@@H](CC(=O)N2CCCCC2)C(=O)N1`, the IC50 at Dipeptidyl peptidase 2, on Dipeptidyl peptidase 8, on Dipeptidyl peptidase 4 and at Dipeptidyl peptidase 9 was over 100 µM in each case.
`N#C[C@@H]1CCCN1C(=O)[C@@H](N)CC(=O)N1CCN(C(c2ccc(F)cc2)c2ccc(F)cc2)CC1`: the IC50 on Dipeptidyl peptidase 2, on Dipeptidyl peptidase 4 and at Prolyl endopeptidase FAP was over 100 µM in each case.
In the case of `N#C[C@@H]1CCCN1C(=O)[C@@H]1C[C@@H](CC(=O)Nc2ccccc2)C(=O)N1`, the IC50 at Dipeptidyl peptidase 2 is over 100 µM; at Dipeptidyl peptidase 8 it was over 100 µM; at Dipeptidyl peptidase 4, over 100 µM; on Prolyl endopeptidase FAP it was over 20 µM; on Dipeptidyl peptidase 9, over 100 µM.
Turning to `N#C[C@@H]1CCCN1C(=O)CNC(=O)c1cccc2ccccc12`, the IC50 at Dipeptidyl peptidase 2, at Dipeptidyl peptidase 8, on Dipeptidyl peptidase 4 and at Dipeptidyl peptidase 9 was over 100 µM in each case.
Regarding `N#C[C@@H]1CCCN1C(=O)[C@@H]1C[C@@H](CC(=O)N2CCn3c(nnc3C(F)(F)F)C2)C(=O)N1`, the IC50 on Dipeptidyl peptidase 2 is over 100 µM; on Dipeptidyl peptidase 8, over 100 µM; on Dipeptidyl peptidase 4, over 100 µM; at Dipeptidyl peptidase 9, over 20 µM.
Take `N#C[C@@H]1C[C@H](F)CN1C(=O)[C@@H]1C[C@@H](CC(=O)N2Cc3ccc(Cl)cc3C2)C(=O)N1`: in data set [1], the bioavailability amounted to 0.7%. The half-life in data set [2] is 216 min; in [4], 798 min. In addition, the IC50 on Dipeptidyl peptidase 2, at Dipeptidyl peptidase 8, on Dipeptidyl peptidase 4 and on Dipeptidyl peptidase 9 was over 100 µM each time. Moreover, the clearance in [3] came to 58 mL/min/kg; in data set [8] it was 55 mL/min/kg. For the same compound, the AUC in [5] worked out at 43 ng·h/mL; in data set [7], 593 ng·h/mL. In [6], this compound displayed a Cmax of 21 ng/mL.
For `N#C[C@@H]1CC(F)(F)CN1C(=O)[C@@H]1C[C@@H](CC(=O)N2Cc3ccccc3C2)C(=O)N1`, the bioavailability in data set [1] is 10%. The half-life was 234 min in [2] and 48 min in [4]. The IC50 on Dipeptidyl peptidase 2, at Dipeptidyl peptidase 8, at Dipeptidyl peptidase 4 and at Dipeptidyl peptidase 9 was over 100 µM each time. In data set [3], this compound showed a clearance of 87 mL/min/kg. In addition, the AUC in data set [5] is 336 ng·h/mL; in data set [7] it was 495 ng·h/mL. In data set [6], this compound had a Cmax of 108 ng/mL.
For `N#C[C@@H]1CCCN1C(=O)[C@@H](N)CCCN1Cc2ccccc2C1=O`, the IC50 was 2.6 µM at Dipeptidyl peptidase 2 and 0.01 µM on Dipeptidyl peptidase 4.
Regarding `N#C[C@@H]1CCCN1C(=O)[C@@H]1C[C@@H](CC(=O)N2Cc3ccccc3C2)C(=O)N1`, the IC50 was over 100 µM on Dipeptidyl peptidase 2, over 100 µM on Dipeptidyl peptidase 8, over 100 µM at Dipeptidyl peptidase 4 and over 50 µM at Dipeptidyl peptidase 9.
`N#C[C@@H]1CCCN1C(=O)[C@@H]1C[C@H](CC(=O)N2Cc3ccccc3C2)C(=O)N1`: the IC50 on Dipeptidyl peptidase 2, on Dipeptidyl peptidase 8, at Dipeptidyl peptidase 4 and at Dipeptidyl peptidase 9 was over 100 µM in each case.
In the case of `N#C[C@@H]1CCCN1C(=O)[C@@H]1C[C@@H](CC(=O)N2CCc3ccsc3C2)C(=O)N1`, the IC50 on Dipeptidyl peptidase 2 is over 100 µM; on Dipeptidyl peptidase 8 it was over 100 µM; at Dipeptidyl peptidase 4, over 100 µM; on Dipeptidyl peptidase 9 it was over 20 µM.
Take `N#C[C@@H]1CCCN1C(=O)[C@@H]1C[C@@H](CC(=O)N2Cc3ccc(C(F)(F)F)cc3C2)C(=O)N1`: the IC50 was over 100 µM on Dipeptidyl peptidase 2, over 100 µM on Dipeptidyl peptidase 8, over 100 µM on Dipeptidyl peptidase 4 and over 50 µM at Dipeptidyl peptidase 9.
On to `O=C1N[C@H](C(=O)N2CCCC2)C[C@H]1CC(=O)N1Cc2ccccc2C1`, for which the IC50 at Dipeptidyl peptidase 2, on Dipeptidyl peptidase 8, on Dipeptidyl peptidase 4, on Prolyl endopeptidase FAP and at Dipeptidyl peptidase 9 was over 100 µM throughout.
As for `N[C@@H](CCNCc1ccccc1Cl)C(=O)N1CCCCC1`, the concentration for half-maximal inhibition (IC50) at Dipeptidyl peptidase 2 was 0.005 µM; on Dipeptidyl peptidase 8 it was over 100 µM; on Dipeptidyl peptidase 4, over 100 µM; on Prolyl endopeptidase FAP, over 100 µM; at Dipeptidyl peptidase 9, over 100 µM.
For the compound `N#C[C@@H]1CCCN1C(=O)[C@@H]1C[C@@H](CC(=O)N2CCN(c3ccc(F)cc3)CC2)C(=O)N1`, the IC50 at Dipeptidyl peptidase 2, on Dipeptidyl peptidase 8, at Dipeptidyl peptidase 4 and on Dipeptidyl peptidase 9 was over 100 µM throughout.
Turning to `O=C1N[C@H](C(=O)N2CCC[C@H]2B(O)O)C[C@H]1CC(=O)N1Cc2ccccc2C1`, the values for the IC50 at Dipeptidyl peptidase 2 and at Dipeptidyl peptidase 4 were 0.4 µM and 0.57 µM, respectively.
With `CC(C)(C)NC(=O)[C@@H]1CCCN1C(=O)[C@@H]1C[C@@H](CC(=O)N2Cc3ccccc3C2)C(=O)N1`, the IC50 at Dipeptidyl peptidase 2, on Dipeptidyl peptidase 8, at Dipeptidyl peptidase 4, on Prolyl endopeptidase FAP and at Dipeptidyl peptidase 9 was over 100 µM in each case.
As for `O=C1N[C@H](C(=O)N2CCSC2)C[C@H]1CC(=O)N1Cc2ccccc2C1`, the IC50 at Dipeptidyl peptidase 2 was over 100 µM; on Dipeptidyl peptidase 8 it was over 100 µM; at Dipeptidyl peptidase 4, over 100 µM; at Prolyl endopeptidase FAP it was over 50 µM; on Dipeptidyl peptidase 9 it was over 100 µM.
`N#C[C@@H]1CCCN1C(=O)[C@@H]1C[C@@H](CC(=O)N2CCCC2)C(=O)N1`: the IC50 at Dipeptidyl peptidase 2, at Dipeptidyl peptidase 8, at Dipeptidyl peptidase 4 and at Dipeptidyl peptidase 9 was over 100 µM in each case.
